The values that follow come from paper PMC12755868, “Recombinant Production, SpeciesSpecific Activity at the TRPA1 Channel, and Significance of the N-Terminal Residue of ProTx-I Toxin from Thrixopelma Pruriens Tarantula Venom” (Acta Naturae, 2025).

“Also recorded” adds a separate entry of the source. Positions of bridges follow the written chain, without caps; N, C: chain ends. Residues, ends and D or L forms follow the SMILES beside them.

Assay [1] addresses T1, human TRPA1 (Homo sapiens, UniProt O75762).
T1 construct: expressed in transfected cells; host or cells: Xenopus laevis oocytes (mRNA injection)
Kind of assay: Inhibition of AITC-induced currents through human TRPA1 in X. laevis oocytes (electrophysiology). In kind it is cell-based. The note with it: for residual current (inhibited currents to): human TRPA1, toxin 10 μM, 100 μM AITC, normalized to response without ProTx-I (100%), n = 3–6 oocytes. Here is the method: (§1) Currents through human and rat TRPA1 [21] were recorded in X. laevis oocytes expressing these channels. Oocyte isolation, mRNA injection, and experimental recordings have been described previously. All solutions were prepared on the day of the experiment using calcium-free ND-96 containing 96 mM NaCl, 2 mM KCl, 1 mM MgCl2 , and 10 mM HEPES at pH 7.4. Currents were stimulated by the application 100 μM AITC (Sigma-Aldrich). The solution was manually added to the perfusion chamber, and the currents were recorded using voltage ramps as reported in [22]. For each oocyte, we sequentially recorded three responses to AITC application, as well as the subsequent leakage current in the presence of a specific TRPA1 inhibitor: HC030031 (Sigma-Aldrich). The first response amplitude was used to normalize the data obtained on different oocytes. To induce the second response, AITC was applied together with ProTx-I or HC030031. The amplitude of this response was measured, normalized, averaged across different oocytes, and used to plot dose-response curves. Dose-response curves were approximated by the Hill equation: […]
where nH is the Hill coefficient.
Statistical data processing was performed using GraphPad Prism 9.0. To compare current amplitudes at specific toxin concentrations, either a two-tailed Student’s t-test or one-way ANOVA and Dunnett’s multiple comparison test was used. Dose-response curve parameters were compared using the F-test.
Fig. 4 Effect of ProTx-I variants on AITC-induced outward currents through TRPA1 in X. laevis oocytes. (A) Average normalized current traces for the human TRPA1 channel in the absence and presence of the selective antagonist HC030031 or ProTx-I. Data are presented as mean ± SEM (lines and shaded areas, respectively, n = 3–6 oocytes). Compound application periods are shown by solid black bars above the traces. […] (C) Dose-response curves for recombinant rProTx-I at human (hTRPA1) and rat (rTRPA1) ion channels. […] Data in B and C (mean ± SEM, n = 3–6 oocytes) are normalized to the response recorded without ProTx-I (100%)

Another assay deals with T2, rat TRPA1 (Rattus norvegicus, UniProt Q6RI86).
T2 construct: expressed in transfected cells; host or cells: Xenopus laevis oocytes (mRNA injection)
T2 sequence (Q6RI86 whole entry): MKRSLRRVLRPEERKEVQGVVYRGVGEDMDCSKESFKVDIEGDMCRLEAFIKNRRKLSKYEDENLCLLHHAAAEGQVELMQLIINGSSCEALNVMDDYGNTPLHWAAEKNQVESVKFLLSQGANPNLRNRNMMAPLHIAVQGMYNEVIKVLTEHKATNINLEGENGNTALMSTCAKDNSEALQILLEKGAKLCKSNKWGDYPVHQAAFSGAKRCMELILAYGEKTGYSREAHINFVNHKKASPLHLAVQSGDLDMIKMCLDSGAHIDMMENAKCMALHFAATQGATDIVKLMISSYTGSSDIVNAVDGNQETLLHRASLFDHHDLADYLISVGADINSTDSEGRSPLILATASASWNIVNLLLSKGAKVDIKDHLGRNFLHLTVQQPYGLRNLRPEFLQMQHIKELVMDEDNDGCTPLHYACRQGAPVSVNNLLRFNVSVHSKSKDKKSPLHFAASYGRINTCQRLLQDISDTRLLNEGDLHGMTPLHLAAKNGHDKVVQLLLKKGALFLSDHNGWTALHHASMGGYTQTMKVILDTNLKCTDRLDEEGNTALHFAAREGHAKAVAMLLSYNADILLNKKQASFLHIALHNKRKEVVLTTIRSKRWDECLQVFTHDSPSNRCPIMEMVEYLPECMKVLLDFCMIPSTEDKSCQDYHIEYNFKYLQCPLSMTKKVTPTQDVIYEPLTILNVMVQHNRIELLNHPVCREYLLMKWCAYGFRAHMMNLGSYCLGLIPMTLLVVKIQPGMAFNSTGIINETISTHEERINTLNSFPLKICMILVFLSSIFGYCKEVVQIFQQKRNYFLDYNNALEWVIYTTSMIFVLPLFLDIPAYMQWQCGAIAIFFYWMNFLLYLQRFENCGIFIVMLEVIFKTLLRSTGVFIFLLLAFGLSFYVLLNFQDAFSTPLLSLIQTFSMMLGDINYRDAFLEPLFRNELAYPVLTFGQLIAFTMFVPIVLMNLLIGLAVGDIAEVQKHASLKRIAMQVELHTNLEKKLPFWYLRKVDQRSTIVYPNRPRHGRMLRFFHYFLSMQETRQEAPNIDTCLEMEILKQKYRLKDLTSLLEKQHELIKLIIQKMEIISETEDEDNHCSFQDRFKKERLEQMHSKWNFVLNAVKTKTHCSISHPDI
Kind of assay: Inhibition of AITC-induced currents through rat TRPA1 in X. laevis oocytes (electrophysiology). Type of assay: cell-based. Here is the method:
as §1
where nH is the Hill coefficient. […]
Fig. 4 Effect of ProTx-I variants on AITC-induced outward currents through TRPA1 in X. laevis oocytes. […] Data in B and C (mean ± SEM, n = 3–6 oocytes) are normalized to the response recorded without ProTx-I (100%)

Assay [2] deals with voltage-gated sodium (NaV), potassium, and calcium channels. The note with it: cited from earlier work. The text has this:
Due to its action at the NaV1.7, NaV1.8, and TRPA1 channels involved in pain perception and propagation, ProTx-I may be used as a model for the development of next-generation analgesics. ProTx-I consists of 35 amino acid residues, with three disulfide bonds forming an inhibitor cystine knot (ICK) motif, which challenges its heterologous production. An efficient Pro ... || Spider knottins include membrane-active toxins that affect the activation or inactivation of sodium (NaV), potassium, and calcium voltage-gated channels (so-called gating modifier toxins). The ProTx-I toxin (Protoxin-I or β/ω-theraphotoxin-Tp1a, 35 aa) is a membrane-active knottin of the Peruvian green velvet tarantula Thrixopelma pruriens. […] Among the ProTx-I targets, NaV1.7, NaV1.8, and TRPA1 channels are promising therapeutic targets for the treatment of pain and neu ...

Assay [3] has as its target T1, human TRPA1. To be noted: cited from earlier work.
Excerpt: In the present study, we compared the functional activity of Met-ProTx-I and ProTx-I, with the latter being produced by hydrolysis of 6His-Met-ProTx-I, at the human TRPA1 channel expressed in X. laevis oocytes.

T1 sequence (O75762 whole entry): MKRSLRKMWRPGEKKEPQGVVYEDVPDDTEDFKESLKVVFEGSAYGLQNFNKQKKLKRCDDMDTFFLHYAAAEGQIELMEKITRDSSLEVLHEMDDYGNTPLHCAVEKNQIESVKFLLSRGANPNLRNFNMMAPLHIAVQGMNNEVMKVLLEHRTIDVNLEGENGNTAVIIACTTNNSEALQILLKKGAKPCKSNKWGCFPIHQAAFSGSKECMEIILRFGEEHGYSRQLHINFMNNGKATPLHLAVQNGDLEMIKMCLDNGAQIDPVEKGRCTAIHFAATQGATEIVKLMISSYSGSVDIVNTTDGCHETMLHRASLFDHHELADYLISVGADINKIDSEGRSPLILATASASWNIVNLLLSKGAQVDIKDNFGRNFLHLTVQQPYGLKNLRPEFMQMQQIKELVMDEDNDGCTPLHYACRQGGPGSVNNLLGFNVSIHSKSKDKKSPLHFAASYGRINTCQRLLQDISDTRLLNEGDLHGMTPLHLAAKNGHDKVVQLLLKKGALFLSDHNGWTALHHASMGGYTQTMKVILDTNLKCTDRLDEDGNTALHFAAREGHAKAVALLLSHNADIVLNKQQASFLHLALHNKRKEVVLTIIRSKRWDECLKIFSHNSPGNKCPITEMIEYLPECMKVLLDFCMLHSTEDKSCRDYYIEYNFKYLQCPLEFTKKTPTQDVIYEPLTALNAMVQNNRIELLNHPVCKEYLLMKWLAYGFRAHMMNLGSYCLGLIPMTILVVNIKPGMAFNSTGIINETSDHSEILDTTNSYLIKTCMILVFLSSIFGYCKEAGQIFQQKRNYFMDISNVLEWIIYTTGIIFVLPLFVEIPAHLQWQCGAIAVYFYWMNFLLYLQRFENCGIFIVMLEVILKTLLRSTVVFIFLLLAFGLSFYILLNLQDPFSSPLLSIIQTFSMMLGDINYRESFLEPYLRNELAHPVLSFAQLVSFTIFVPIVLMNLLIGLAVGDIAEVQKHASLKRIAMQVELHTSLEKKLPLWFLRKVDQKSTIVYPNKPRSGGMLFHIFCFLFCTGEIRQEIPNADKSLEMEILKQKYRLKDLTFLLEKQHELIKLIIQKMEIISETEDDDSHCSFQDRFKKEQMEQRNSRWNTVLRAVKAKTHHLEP

On to `CC(C)c1ccc(NC(=O)Cn2cnc3c2c(=O)n(C)c(=O)n3C)cc1` [HC030031], for which the “inhibition of current through TRPA1 (in words)” value at human TRPA1 [1] is recorded as “This effect was similar to that of 50 μM HC0300301”.

For the compound `CSCC[C@H](N)C(=O)N[C@@H](CCC(=O)O)C(=O)N[C@H]1CSSC[C@@H]2NC(=O)[C@@H]3CSSC[C@@H](C(=O)N[C@H](C(=O)N[C@@H](Cc4c[nH]c5ccccc45)C(=O)N[C@@H](CC(=O)O)C(=O)NCC(=O)N[C@H](C(=O)N[C@@H](Cc4ccccc4)C(=O)N[C@@H](CO)C(=O)O)[C@@H](C)O)C(C)C)NC(=O)[C@H](Cc4c[nH]c5ccccc45)NC(=O)CNC(=O)[C@H](Cc4c[nH]cn4)NC(=O)[C@H](CCCNC(=N)N)NC(=O)[C@H](CCCNC(=N)N)NC(=O)[C@H](CO)NC(=O)[C@H](CSSC[C@H](NC(=O)CNC(=O)CNC(=O)[C@H](CC(C)C)NC(=O)[C@H](Cc4c[nH]c5ccccc45)NC(=O)[C@H](Cc4ccc(O)cc4)NC(=O)[C@H](CCCNC(=N)N)NC1=O)C(=O)N[C@@H](CO)C(=O)N[C@@H](C)C(=O)NCC(=O)N[C@@H](CCC(N)=O)C(=O)N[C@@H]([C@@H](C)O)C(=O)N3)NC(=O)[C@H](C(C)C)NC(=O)[C@H](CC(C)C)NC(=O)[C@H](Cc1c[nH]cn1)NC(=O)[C@H](CCCCN)NC2=O` [Met-ProTx-I] (H-MECRYWLGGCSAGQTCCKHLVCSRRHGWCVWDGTFS-OH; disulfide 3-17, 10-22, 16-29), on human TRPA1 [1], inhibition was half-maximal at 8.9 ± 7 µM (IC50) and the “residual current (inhibited currents to)” value is given as ~ 60%.

For `CC(C)C[C@@H]1NC(=O)[C@H](Cc2c[nH]c3ccccc23)NC(=O)[C@H](Cc2ccc(O)cc2)NC(=O)[C@H](CCCNC(=N)N)NC(=O)[C@@H](NC(=O)[C@@H](N)CCC(=O)O)CSSC[C@@H]2NC(=O)[C@@H]3CSSC[C@@H](C(=O)N[C@H](C(=O)N[C@@H](Cc4c[nH]c5ccccc45)C(=O)N[C@@H](CC(=O)O)C(=O)NCC(=O)N[C@H](C(=O)N[C@@H](Cc4ccccc4)C(=O)N[C@@H](CO)C(=O)O)[C@@H](C)O)C(C)C)NC(=O)[C@H](Cc4c[nH]c5ccccc45)NC(=O)CNC(=O)[C@H](Cc4c[nH]cn4)NC(=O)[C@H](CCCNC(=N)N)NC(=O)[C@H](CCCNC(=N)N)NC(=O)[C@H](CO)NC(=O)[C@H](CSSC[C@H](NC(=O)CNC(=O)CNC1=O)C(=O)N[C@@H](CO)C(=O)N[C@@H](C)C(=O)NCC(=O)N[C@@H](CCC(N)=O)C(=O)N[C@@H]([C@@H](C)O)C(=O)N3)NC(=O)[C@H](C(C)C)NC(=O)[C@H](CC(C)C)NC(=O)[C@H](Cc1c[nH]cn1)NC(=O)[C@H](CCCCN)NC2=O` [ProTx-I (Smartox)], at human TRPA1 [1], the midpoint of inhibition, the IC50, lay at 0.41 ± 0.16 µM and the “residual current (inhibited currents to)” value is ~ 5%.

With `CC(C)C[C@@H]1NC(=O)[C@H](Cc2c[nH]c3ccccc23)NC(=O)[C@H](Cc2ccc(O)cc2)NC(=O)[C@H](CCCNC(=N)N)NC(=O)[C@@H](NC(=O)[C@@H](N)CCC(=O)O)CSSC[C@@H]2NC(=O)[C@@H]3CSSC[C@@H](C(=O)N[C@H](C(=O)N[C@@H](Cc4c[nH]c5ccccc45)C(=O)N[C@@H](CC(=O)O)C(=O)NCC(=O)N[C@H](C(=O)N[C@@H](Cc4ccccc4)C(=O)N[C@@H](CO)C(=O)O)[C@@H](C)O)C(C)C)NC(=O)[C@H](Cc4c[nH]c5ccccc45)NC(=O)CNC(=O)[C@H](Cc4c[nH]cn4)NC(=O)[C@H](CCCNC(=N)N)NC(=O)[C@H](CCCNC(=N)N)NC(=O)[C@H](CO)NC(=O)[C@H](CSSC[C@H](NC(=O)CNC(=O)CNC1=O)C(=O)N[C@@H](CO)C(=O)N[C@@H](C)C(=O)NCC(=O)N[C@@H](CCC(N)=O)C(=O)N[C@@H]([C@@H](C)O)C(=O)N3)NC(=O)[C@H](C(C)C)NC(=O)[C@H](CC(C)C)NC(=O)[C@H](Cc1c[nH]cn1)NC(=O)[C@H](CCCCN)NC2=O` [rProTx-I], on human TRPA1 [1], the IC50 (in general, the concentration that inhibits the measured activity by half) turned out to be 0.84 ± 0.19 µM and the “residual current (inhibited currents to)” value is ~ 5%. For the same compound, the IC50 at rat TRPA1 (rTRPA1 in X. laevis oocytes, outward currents induced by 100 μM AITC, calcium-free ND-96, pH 7.4, voltage ramps, Hill equation fit, n = 3–6 oocytes, rat vs human p = 0.006 (F-test)) was found to be 0.25 ± 0.07 µM.

Regarding ProTx-I, in assay [2], the “inhibition of voltage-gated channels (in words)” value was “inhibits voltage-gated sodium (NaV), potassium, and calcium channels; also recorded: effectively inhibits a number of voltage-gated channels”. The “species selectivity, human versus mouse TRPA1 (in words)” value on human TRPA1 [3] was “higher activity at the human channel”. Moreover, the “species selectivity, rat versus human TRPA1 (in words)” value on rat TRPA1 (rat versus human TRPA1, difference in IC50 p = 0.006 (F-test)) was “different activities relative to human and rat TRPA1 channels”.
